pEC50, pIC50: −log10 of the molar value. In brackets after ≈: the same amount, converted by molar mass. Each block holds one compound with its values, some of them ahead of it.
Assays:
Cell line [1] = assay: Mean decrease in viral load in humans after administration of 25 mg once a day; expressed as log 10 reduction; assay type: functional, Homo sapiens
Cell line [2] = assay: Mean decrease in viral load in humans after administration of 100 mg twice a day; expressed as log10 reduction; assay type: functional, Homo sapiens
[3] = biological target: C-C chemokine receptor type 5 (Homo sapiens) (UniProt P51681)
Chain of C-C chemokine receptor type 5 (Homo sapiens) (P51681 whole entry, looked up): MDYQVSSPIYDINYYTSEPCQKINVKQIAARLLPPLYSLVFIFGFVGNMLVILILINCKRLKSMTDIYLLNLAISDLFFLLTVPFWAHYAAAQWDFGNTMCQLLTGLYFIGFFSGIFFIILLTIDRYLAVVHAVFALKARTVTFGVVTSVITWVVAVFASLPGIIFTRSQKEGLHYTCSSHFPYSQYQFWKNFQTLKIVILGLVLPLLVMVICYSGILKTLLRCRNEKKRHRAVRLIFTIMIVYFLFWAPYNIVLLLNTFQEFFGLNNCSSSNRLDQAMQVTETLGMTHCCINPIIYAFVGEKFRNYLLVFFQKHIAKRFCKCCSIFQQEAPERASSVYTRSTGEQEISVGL
Description: Inhibitory concentration against human immunodeficiency virus isolates utilizing C-C chemokine receptor type 5 for cell entry

[4] = tested on: Human immunodeficiency virus 1; assay: (§1) Effective concentration to inhibit the replication of HIV-1 R5 strain; assay type: functional
[5] = tested on: Human immunodeficiency virus 1; assay: as §1; assay type: functional, organism-based
[6] = Oral bioavailability in monkeys; assay type: ADME, organism-based; settings: cercopithecidae, in vivo, read-out: Bioavailabiility
[7] = Oral bioavailability in fasted rats; assay type: ADME, organism-based; settings: rat, in vivo, read-out: Bioavailabiility
Cell line [8] = assay: Reduction of viral load after oral administration at 100 mg for 8 weeks; expressed as log10 reduction; assay type: functional, Homo sapiens
[9] = tested on: Human immunodeficiency virus 1; assay: Effective concentration of the compound against human immunodeficiency virus type 1; assay type: functional, organism-based
[10] = tested on: Human immunodeficiency virus 1; assay: Selectivity index against human immunodeficiency virus type 1; assay type: functional
[11] = Inhibitory concentration to inhibit cell to cell fusion based on C14 linkmid (a short constrained peptide); assay type: functional
[12] = tested on: Human immunodeficiency virus 1; assay: Inhibitory concentration to inhibit HIV-1 mediated cell to cell fusion; assay type: functional, organism-based
[13] = tested on: Human immunodeficiency virus 1; assay: Cytotoxic concentration of the compound to inhibit HIV 1 replication; assay type: functional
[14] = tested on: Human immunodeficiency virus 1; assay: Effective concentration of the compound to inhibit human immunodeficiency virus type 1 replication; assay type: functional, organism-based
Cell line [15] = assay: Reduction of viral load after administration at 25 mg, twice daily for 10 days with antiretrovirals; expressed as log10 reduction; (0.5-1 ); assay type: functional, Homo sapiens
[16] = tested on: Human immunodeficiency virus 1; assay: Effective concentration against human immunodeficiency virus type 1 strains; (0.3-0.5 nM); assay type: functional, organism-based
[17] = tested on: Human immunodeficiency virus 1; assay: Fold reduction in plasma HIV RNAafter intravenous administration of 100 mg twice daily (1.5-2.0); assay type: functional
[18] = tested on: Human immunodeficiency virus 1; assay: Effective concentration of the compound to inhibit the replication of human immunodeficiency virus type 1; assay type: functional, organism-based

Compound: Cc1nnc(C(C)C)n1[C@H]1CC2CC[C@@H](C1)N2CC[C@H](NC(=O)C1CCC(F)(F)CC1)c1ccccc1 (single isomer, unassigned) [MARAVIROC]
- Activity (Cell line [1]): 0.42
- Activity (Cell line [2]): 1.42
- IC90 [3]: < 10 nM

Compound: O=C1Nc2ccc(Cl)cc2[C@@](/C=C/C2CC2)(C(F)(F)F)N1
- Reduction (Cell line [8]): 1.28

Compound: Cc1ccc(C)c(CSc2c(Cl)ccc[n+]2[O-])c1
- EC50 [9]: 0.05 µg/mL (≈ 0.179 µM)
- SI [10]: ~760

Compound: CC(C)Cc1cc(-c2ccc(-c3ccc(CCC(=O)O)cc3CC(C)C)cc2C(C)C)ccc1OCC(=O)O
- pIC50 [11]: 4.46
- IC50 [12]: ~15 µg/mL (≈ 28.3 µM)

Compound: COC[C@@H](c1ccc(C(F)(F)F)cc1)N1CCN(C2(C)CCN(C(=O)c3c(C)ncnc3C)CC2)C[C@@H]1C [VICRIVIROC]
- Reduction (Cell line [15]): 1

Compound: enfuvirtide
- Reduction [17]: 2

The next lines start with results.

- EC90 [4]: 13 nM
- pEC50 [5]: 8.96
- bioavailability [6]: 28.5%
- bioavailability [7]: 9.5%
Compound: CC(=O)N1CCC(C(=O)N(CCCN2CCC(Cc3ccc(C(N)=O)cc3)CC2)c2ccc(C)c(Cl)c2)CC1

- pEC50 [14]: 6.85
Compound: O=C(/C=C(\O)c1ccc(Cc2ccc(F)cc2)o1)c1nc[nH]n1
- CC50 [13]: 110000 nM

- pEC50 [16]: 9.30
Compound: COc1ccc(S(=O)(=O)N(CC(C)C)C[C@@H](O)[C@H](Cc2ccccc2)NC(=O)O[C@H]2CO[C@H]3OCC[C@H]32)cc1

- pEC50 [18]: 5.05
Compound: O=[N+]([O-])c1ccc(C2c3c(O)nc(S)nc3Oc3nc(S)nc(O)c32)cc1

From ChEMBL document CHEMBL1142687, “New approaches toward anti-HIV chemotherapy” (J Med Chem, 2005)
